US9987294B2, “Mitochondria-targeted anti-tumor agents” (University of Massachusetts, priority 2007, dated 2018)
“Also recorded” adds a separate entry of the source.

Key:
[1] = system: HeLa cells; experiment: Cytochrome c release into the cytosol of treated tumor cells (Western blotting); format: cell-based, human
[2] = system: lung adenocarcinoma H460 cells; experiment: Cell viability by MTT, H460; format: cell-based, human
Protocol: (§1) Modulation of cell viability was determined by MTT (Kang et al., “Regulation of tumor cell mitochondrial homeostasis by an organelle-specific Hsp90 chaperone network,” Cell, 131:257-270 (2007)). For determination of apoptosis, cells were analyzed for caspase activity (DEVDase activity) and plasma membrane integrity (propidium iodide) using CaspaTag (Intergen, Burlington, Mass.), by multiparametric flow cytometry (Kang et al., “Regulation of tumor cell mitochondrial homeostasis by an organelle-specific Hsp90 chaperone network,” Cell, 131:257-270 (2007)).

[3] = system: SKBr3 cells; experiment: Dead cells by Trypan blue staining, SKBr3; format: cell-based; conditions: 10 μM
[4] = system: isolated tumor mitochondria; experiment: Inner membrane potential of TMRM-loaded tumor mitochondria; format: biochemical
Protocol: (§2) The fluorescence intensity after treatment with 2 mM CaCl2 corresponded to a fully depolarized state. Alternatively, H460 cells were labeled with the fluorescent dye JC-1 (Molecular Probes), and analyzed for changes in red/green (F1-2/F1-1) fluorescence ratio after treatment with the various agents, by multiparametric flow cytometry. Cytochrome c content in pellets or supernatants of drug-treated isolated mitochondria was determined by Western blotting.

[5] = system: tumor mitochondria; experiment: Cytochrome c release from drug-treated isolated tumor mitochondria; format: biochemical
Protocol: Tumor cell types were treated with controls or the various Hsp90 antagonists, and cytosolic extracts were harvested at increasing time intervals between 5-30 minutes and analyzed by Western blotting. For experiments in a cell-free system, purified mitochondria (20 μg) were suspended in 500 μl of SB buffer (0.2 M sucrose, 10 mM Tris-MOPS, pH 7.4, 5 mM succinate, 1 mM sodium phosphate, 10 μM EGTA-Tris, and 2 μM rotenone). […] At the end of each incubation reaction, mitochondria and supernatants were separated by centrifugation at 6,000×g for 10 minutes, and analyzed by Western blotting.
as §2

[6] = system: Akt, Chk1 and Hsp70 in HeLa cells; experiment: Hsp90 client protein and Hsp70 levels in treated cells (Western blotting); format: cell-based, human; conditions: 5 μM for 24 hours
Protocol: In other experiments, chaperone-dependent GST-Chk1 reconstitution was determined as described previously (Arlander et al., “Chaperoning checkpoint kinase 1 (Chk1), an Hsp90 client, with purified chaperones,” J Biol Chem, 281:2989-2998 (2006)). Briefly, each sample contained 0.7 μg of resin-bound GST-Chk1 (residues 1-265), 1 μg of purified human Hsp90α, and the following amounts of other purified chaperone proteins: 10 μg Hsp70, 2 μg Hdj1, 2 μg p50^cdc37, 0.06 units CK2, 2.5 μg p60^Hop. Optical densities due to Chk1-dependent phosphorylation of Cdc25 in the presence and absence of Gamitrinib or 17-AAG were determined and plotted as fold activation above the sample lacking added chaperone proteins. In some experiments, HeLa cells were treated with Gamitrinibs (G1-G4) or 17-AAG (5 μM) for 24 hours, and isolated extracts were analyzed for modulation of Akt or Hsp70 expression, by Western blotting

[7] = system: HeLa cell mitochondria; experiment: Cytochrome c and Smac release from isolated tumor mitochondria (Western blotting); format: biochemical, human
Protocol: Tumor cell types were treated with controls or the various Hsp90 antagonists, and cytosolic extracts were harvested at increasing time intervals between 5-30 minutes and analyzed by Western blotting. For experiments in a cell-free system, purified mitochondria (20 μg) were suspended in 500 μl of SB buffer (0.2 M sucrose, 10 mM Tris-MOPS, pH 7.4, 5 mM succinate, 1 mM sodium phosphate, 10 μM EGTA-Tris, and 2 μM rotenone). Samples were treated with controls or the various Hsp90 antagonists for 20 minutes at 22° C. At the end of each incubation reaction, mitochondria and supernatants were separated by centrifugation at 6,000×g for 10 minutes, and analyzed by Western blotting.

[8] = system: tumor cells; experiment: Cell viability by MTT, tumor cell types; format: cell-based
[9] = system: H460 lung adenocarcinoma xenograft tumors; experiment: Xenograft tumor growth, H460; format: in vivo, mice; conditions: i.p.; G4 and 17-AAG 2-3 mg/kg twice daily, G1 30-50 mg/Kg daily, TPP 10 mg/Kg daily
Protocol: To create the models used in this example, HL60 (10×10^6) or H460 (4×10^6) cells suspended in sterile PBS (200 μl) were injected subcutaneously into both flanks of 10 week-old CB17 SCID/beige (Taconic Farms) immunocompromised female mice. Alternatively, MDA-MB-231 cells (5×10^6) suspended in 200 μl of 50% Matrigel (BD Biosciences) were used for subcutaneous injection in CB17 SCID/beige mice. When superficial tumors reached volumes of 100-150 mm^3, animals were randomized in two groups (2 tumors/mouse, 3 animals/group), and treated with vehicle (DMSO) or Gamitrinib dissolved in 20% Cremophor EL (Sigma) in PBS by intraperitoneal (i.p.) injection. Gamitrinib-G4 was used as sterile i.p. injections with the following schedules: HL60 xenografts, 2 mg/Kg twice daily; H460 xenografts, 2 mg/kg twice daily for d 0, 2.5 mg/kg twice daily for d 1, 3.0 mg/kg twice daily for the duration of treatment; MDA-MB-231 xenografts, 2 mg/Kg twice daily for d 0-2, 2.5 mg/Kg twice daily for d 3-5, and 3 mg/Kg twice daily throughout the rest of the treatment. 17-AAG was dissolved in 20% Cremophor EL and used as systemic i.p. injections with the same dose-escalating regimen as Gamitrinib-G4 in H460 xenograft studies. Gamitrinib-G1 was used with following schedules: 30 mg/Kg daily (d 0-2), and 50 mg/Kg daily for the rest of treatment. Gamitrinib-TPP was used as i.p. injections at 10 mg/Kg daily throughout the duration of the experiment. Tumor measurements were taken daily with a caliper, and tumor volume was calculated with the formula ([length in millimeters]×[width in millimeters]^2)/2. Mice in the various treatment groups were weighed at the beginning and at the end of each experiment.

[10] = system: breast adenocarcinoma SKBr3 cells; experiment: Metabolic activity by MTT, SKBr3; format: cell-based; conditions: 10 μM; by 48 hours and throughout a 96-hours interval
Protocol: as §1

[11] = system: Raji cells; experiment: Mitochondrial membrane potential in JC-1-loaded cells (flow cytometry); format: cell-based, human; conditions: within five minutes of addition
Protocol: Raji cells were treated with Shepherdin or control scrambled peptidomimetic (100 μM) or 17-AAG (5 μM), loaded with the mitochondrial membrane potential-sensitive fluorescent dye JC-1, and analyzed for changes in green/red fluorescence ratio by flow cytometry. For experiments in a cell-free system, purified mitochondria isolated from primary normal cells, various tumor cells types, or normal mouse organs were suspended in SB buffer. […] For these experiments, TMRM-loaded mitochondria in SB buffer were allowed to reach stable fluorescence, which was set as fully polarized state (maximum membrane potential). The fluorescence intensity after treatment with 2 mM CaCl2 was set as minimum membrane potential (fully depolarized state). Changes in fluorescence intensity after each treatment were plotted as a ratio between maximum and minimum membrane potential.

C=CCNC1=C2C[C@@H](C)C[C@H](OC)[C@H](O)[C@@H](C)/C=C(\C)[C@H](OC(N)=O)[C@@H](OC)/C=C\C=C(/C)C(=O)NC(=CC1=O)C2=O [Gamitrinib 17-AAG, 17-allylamino-demethoxygeldamycin]
cytochrome c release into the cytosol [1]: had no effect on cytochrome c release over a wide range of concentrations | cell viability ([2]; 3 hour exposure): had no effect | cell viability ([2]; 24 hours): partial reduction in cell viability or cell proliferation | tumor cell killing (dead cells) [3]: most SKBr3 cells treated with 17-AAG were still alive after 72 hours | mitochondrial inner membrane potential [4]: did not affect mitochondrial membrane potential | discharge of mitochondrial cytochrome c ([5]; 20 minutes): ineffective | cytochrome c release from mitochondria ([5]; 3 hours (FIG. 16D)): had no effect on cytochrome c release | expression of the chaperone Hsp70 [6]: increased expression of the chaperone Hsp70 | levels of client proteins Chk1 and Akt [6]: destabilization of client proteins, Chk1 and Akt | cytochrome c or Smac release from isolated tumor mitochondria ([7]; HeLa cell mitochondria): did not induce cytochrome c or Smac release; also recorded: had no effect on mitochondrial integrity | discharge of mitochondrial cytochrome c and Smac in the supernatant ([7]; high concentrations (20 μM)): a small discharge of mitochondrial cytochrome c, but not Smac | tumor cell viability / killing ([8]; 1 hour exposure, MTT): had no effect on tumor cell viability within the same kinetics | tumor cell killing ([8]; prolonged exposure, 24 hours after treatment): partial cell killing; also recorded: modest anticancer activity | tumor growth [9]: had no effect on human lung cancer growth in mice | metabolic activity [10]: comparably reduced metabolic activity | mitochondrial membrane potential in tumor cells [11]: did not affect mitochondrial membrane potential in HeLa cells
